For experiment [1], the system named is human islet cells. Nature of the experiment: Caspase-Glo 3/7 assay in palmitic acid-treated human islets. Set-up: rescuing human islet cells from apoptosis, compared with L-798106 / inhibiting or reversing palmitate-induced apoptosis in pancreatic islets of both human donors / inhibition of palmitate-induced apoptosis in human islets, donor 1: dose or concentration left out as unconfirmed. The note with it: for rescuing human islet cells from apoptosis, compared with L-798106: two human donors. Type of experiment: cell-based. As for the experimental part:
Islet and cell culture: The pancreatic β-cell line MIN6, which is a clonal murine insulin-secreting line, was cultured in DMEM (Biological Industries, Beit Haemek, Israel) supplemented with 11 mM Glucose, 2 mM glutamine, 15% heat-inactivated fetal calf serum (FCS), 100 U/ml penicillin, 100 µg/ml streptomycin and 61 μM β-mercaptoethanol. Human islets were obtained from the European Consortium for Islet Transplantation (ECIT) at the San Raffaele Hospital and from the Niguarda Hospital, (Milan, Italy) and cultured in CMRL-1066 media (Biological Industries, Beit HaEmek, Israel) supplemented with 10% FCS, 5.5 mM glucose, 2 mM L-Glutamine, 100 U/ml penicillin, 100 μg/ml streptomycin and 150 μg/ml gentamycin. Palmitate was added to 1% FCS and 0.5% defatted BSA (Roche, Germany).
(§1) Next, the ability of the compounds to rescue human islet cells from palmitate-induced apoptosis was determined. To this end, the Caspase-Glo 3/7 assay reagent (Promega) was used for caspase 3/7 detection in palmitic acid-treated cells. The reagent provides a proluminescent caspase-3/7 substrate, which contains the tetrapeptide sequence DEVD, in combination with luciferase and a cell-lysing agent. The addition of the reagent directly to the wells results in cell lysis, followed by caspase cleavage of the DEVD substrate, and the generation of luminescence.
Accordingly, human islets from two donors were exposed to the various compounds or to L-798106 for 48 h in the presence of palmitic acid, and the bioluminescence was measured as compared to control cells. FIGS. 3A-3B show the results of the treatment with […] of the compounds in two human donors (FIG. 3A—donor 1, FIG. 3B—donor 2). PA: Palmitate; L: L-798106; RLU: Relative Light Units. The results are average of triplicates or quadruplicates ±SEM (except in islets from L-798106 treated donor 2, representing duplicates).
Next, various concentrations of the compounds were tested in human pancreatic islet cells. Cells obtained from the first healthy donor (donor 1) were incubated in the presence or absence of PA with C13, C5 or L-798106 (L) at concentrations of 5, 2.5 and 0.5 μM. Caspase 3/7 enzymatic activity was measured as described above. The enzymatic activity is presented in FIG. 5A for 5 μM, FIG. 5B for 2.5 μM and FIG. 5C for 0.5 μM as relative light units (RLU/μg protein) and the graphs represent the average of n=3-4.

Experiment [2] relates to MIN6 cells. In words: Caspase 3/7 enzymatic activity in palmitic acid-treated MIN6 cells. Type of experiment: cell-based, murine. The note with it: 250 nM, 24 h. As for the experimental part: as §1
Following the initial screening results, compounds C13 and C5 were tested at different doses for their ability to reduce palmitate-induced apoptosis. To this end, MIN6 cells were exposed to 250 nM of the tested compounds in the presence of palmitic acid (PA) for 24 h, or to PA alone. Caspase 3/7 enzymatic activity was measured as described in Example 3, and the results, presented in FIG. 4 represent the average ±SEM of triplicates or quadruplicates.

Experiment [3] deals with INS1 and INS2 genes. Nature of the experiment: insulin gene expression in palmitate-treated MIN6 cells (real-time PCR). Format: cell-based, murine. Conditions: 10 μM, in the presence of palmitate. How it is done: Real-time PCR: Total RNA from MIN6 cells or islets was extracted using TRIzol (Invitrogen, Carlsbad, CA, USA) and 2 μg of total RNA was converted to cDNA using SuperScript® III Reverse Transcriptase (Invitrogen, Carlsbad, CA, USA). 2.5-5 ng cDNA was used for each real-time PCR reaction. Real-time reaction was performed using Platinum SYBR Green qPCR SuperMix-UDG with ROX reference dye (Applied Biosystems). The primers used were as follows: GAPDH forward (F): […]; GAPDH reverse (R): […]; Ins1 (F): AACCCCCAGCCCTTAGTGA; (R): […]; Ins2 (F): […]; (R): […] (SEQ ID Nos: 1-6, respectively). Additional primers used as controls are directed to HPRT, as follows: HPRT (F): […] HPRT (R) […] (SEQ ID Nos: 7-8, respectively).
PA decreases the expression of β-cell specific genes, including insulin. The effect of the selected compounds on insulin gene expression was further tested in MIN6 cells. Rodent β-cells have two insulin genes (INS1 and INS2). MIN6 cells were exposed to C5 or L-798106 (10 μM) in the presence or absence of palmitic acid, and mRNAs insulin levels were measured by real-time PCR. FIGS. 6A-6B present the expression levels of INS1 and INS2 genes, respectively, normalized to GAPDH expression levels. Data of n=3±SEM is presented.

As to `CC[C@H](C)c1ccc(S(=O)(=O)Nc2ccccc2C(=O)N2C[C@@H](C)O[C@@H](C)C2)cc1` [Compound C5, 4-((S)-sec-butyl)-N-(2-((2S,6R)-2,6-dimethylmorpholine-4-carbonyl)phenyl)benzenesulfonamide], the “inhibition of palmitate-induced apoptosis in human islets, compared with L-798106” value in experiment [1] (donor 1, 5, 2.5 and 0.5 μM) is listed as “to a greater extent than L-798106”. Moreover, the “rescuing human islet cells from apoptosis, compared with L-798106” value in experiment [1] (palmitic acid, 48 h) is recorded as “to a greater extent than the EP3 antagonist L-798106”. In addition, the “palmitate-induced apoptosis (caspase 3/7 activity)” value in experiment [2] is on record as “significantly reduced”. Moreover, in experiment [3], the “effect on insulin gene expression relative to L-798106” value is “appeared to be more significant” and the “insulin gene expression (INS1, INS2) normalized to GAPDH” value is reported as “enhanced insulin gene expression”.

Turning to `CC[C@@H]1CC[C@H](C)N1C(=O)c1cccc(NS(=O)(=O)c2ccc(C)c(F)c2)c1` [Compound C13, N-(3-((2R,5S)-2-ethyl-5-methylpyrrolidine-1-carbonyl)phenyl)-3-fluoro-4-methylbenzenesulfonamide], in experiment [1] (donor 1, 5, 2.5 and 0.5 μM), the “efficacy at all tested concentrations” value is recorded as “remarkable efficacy” and the “inhibition of palmitate-induced apoptosis in human islets, compared with L-798106” value was “to a greater extent than L-798106”. In addition, in experiment [1] (palmitic acid, 48 h), the “inhibiting or reversing palmitate-induced apoptosis in pancreatic islets of both human donors” value was “particularly high efficacy” and the “rescuing human islet cells from apoptosis, compared with L-798106” value is reported as “to a greater extent than the EP3 antagonist L-798106”. The “palmitate-induced apoptosis (caspase 3/7 activity)” value in experiment [2] is on record as “significantly reduced”.

As to `COc1ccc(Br)cc1S(=O)(=O)NC(=O)/C=C/c1ccccc1Cc1ccc2ccccc2c1` [Compound L-798106, (2E)-N-[(5-bromo-2-methoxyphenyl)sulfonyl]-3-[2-(2-naphthalenylmethyl)phenyl]-2-propenamide, reference compound], the “insulin gene expression (INS1, INS2) normalized to GAPDH” value in experiment [3] is listed as “enhanced insulin gene expression”.
